According to patent publication US20180092934A1, “COMPOSITION FOR DNA PROTECTION” (priority 2016, published 2018):

What was measured:
[1] = tested on: alcohol induced DNA damage; assay: Comet assay (SCGE) on whole blood, alcohol-induced DNA damage in rats; format: in vivo, Male Wistar albino rats; conditions: single oral dose in 30% alcohol 4 gm/kg, 4 hr data, n = 4
Excerpt: The Single Cell Gel Electrophoresis assay (SCGE, also known as comet assay) is a straightforward and sensitive technique for the detection of DNA damage at the level of the individual eukaryotic cell. It is being used as a standard technique for evaluation of DNA damage/repair, biomonitoring and genotoxicity testing. It involves the encapsulation of cells in a low-melting-point agarose suspension, lysis of the cells in neutral or alkaline (pH>13) conditions, and electrophoresis of the suspended lysed cells. The term “comet” refers to the pattern of DNA migration through the electrophoresis gel, which often resembles a comet (Cheng-Hung Chuang, Miao-Lin Hu. Use of whole blood directly for single-cell gel electrophoresis (comet) assay in vivo and white blood cells for in vitro assay. Mutation Research; 564 (2004) 75-82.).
(§1) Saline/Alcohol (4.0 gm/kg/day, p.o.)/Formulation with alcohol (4.0 gm/kg/day, p.o.) were administered (fed orally by orogastric cannula) for one day. Blood samples were collected before administration of the Saline/Alcohol/Formulation with alcohol and designated as ‘0’ hour, then 2 and 4 hours after the dose. For comet assay one part of the blood was collected in heparinised tube and the other part was allowed to clot to get serum for 8-OHdG assay. Single cell gel electrophoresis (SCGE, the Comet assay) was carried out using whole blood (Cheng-Hung Chuang, Miao-Lin Hu. Use of whole blood directly for single-cell gel electrophoresis (comet) assay in vivo and white blood cells for in vitro assay. Mutation Research; 564 (2004) 75-82.). In short, 15 μl of whole blood was mixed with low melting agarose and fixed on a microscope slide. Those are then lysed by buffer enriched with detergent and high salt. Concomitant electrophoresis at alkaline pH results in unwinding of DNA followed by structures close to comets, when observed by fluorescence microscopy. The intensity of the comet tail relative to the head presents the number of DNA breaks. The probable basis for this is that loops containing a break lose their super coiling and become free to extend toward the anode. This is followed by visual analysis with staining of DNA and calculating fluorescence to determine the extent of DNA damage (Collins, A. R. (2004). “The comet assay for DNA damage and repair: principles, applications, and limitations”. Mol. Biotechnol. 26 (3): 249-261). 8-hydroxy-2-deoxyguanosine was estimated (8-OHdG) by ELISA kit using competitive-ELISA as the method. The microtiter plate is pre-coated with 8-OHdG. 8-OHdG in the sample or standard competes with a fixed amount of 8-OHdG on the solid phase supporter for sites on the Biotinylated Detection Ab specific to 8-OHdG. Excess conjugate and unbound sample or standard were washed from the plate, and Avidin conjugated to Horseradish Peroxidase (HRP) is added to each microplate well. After incubation a TMB substrate solution is added to each well. The enzyme-substrate reaction is terminated by the addition of a sulphuric acid solution and the color change was measured by plate reader at a wavelength of 450 nm±2 nm. The concentration of 8-OHdG in the samples was then determined by comparing the OD of the samples to the standard curve (Szymańska-Chabowska A et al, Evaluation of DNA Damage in People Occupationally Exposed to Arsenic and Some Heavy Metals. Polish J. of Environ. Stud. Vol. 18, No. 6 (2009), 1131-1139).
(§2) % Protection=1−[(T−NS)/(AL−NS)]×100
(§3) T=Mean value of drug treated, NS=Mean value of normal control, AL=Mean value of alcohol alone.
Male Wistar albino rats weighing 150-200 g were procured and randomly divided into groups consisting of four (4) animals in each group. DNA damage was induced by alcohol in rats by oral administration of 30% alcohol (4 gm/kg/p.o.) once (single dose) and this group served as the negative control and treated groups received different formulations. […]

[2] = tested on: 8-hydroxy-2-deoxyguanosine (8-OHdG); assay: Serum 8-OHdG ELISA, alcohol-induced DNA damage in rats; format: in vivo, Male Wistar albino rats; conditions: single oral dose in 30% alcohol 4 gm/kg, 4 hr data, n = 4
Excerpt: In nuclear and mitochondrial DNA, 8-hydroxy-2′-deoxyguanosine (8-OHdG) is one of the predominant forms of free radical-induced oxidative lesions, and is used as a biomarker for oxidative stress. Rat 8-OHdG ELISA kit from Elabscience is used for the assay. (Valavanidis A et al (2009). 8-hydroxy-2′-deoxyguanosine (8-OHdG): A critical biomarker of oxidative stress and carcinogenesis. J Environ Sci Health C Environ Carcinog Ecotoxicol Rev. 27(2):[…]).
as §1, §2, §3
Male Wistar albino rats weighing 150-200 g were procured and randomly divided into groups consisting of four (4) animals in each group. DNA damage was induced by alcohol in rats by oral administration of 30% alcohol (4 gm/kg/p.o.) once (single dose) and this group served as the negative control and treated groups received different formulations.
All drug solutions were prepared in 40% aqueous alcohol, adjusting the pH in the range of 5.0-10.0 for evaluation of alcohol induced DNA damage and protection against it. This solution was further diluted with distilled water to obtain 30% aqueous alcoholic solution and administered orally by gavage to different rats group of step (1a). […]

Structure (SMILES) | COMET Protection [1] [%] | 8OHdG Protection [2] [%]
OC[C@@H](O)[C@@H](O)[C@H](O)[C@H](O)CO [2.5 Man, D-Mannitol] | 33.98 | 40.24
CC1(C)[C@@H](O[C@H]2O[C@H](C(=O)O)[C@@H](O)[C@H](O)[C@H]2O[C@@H]2O[C@H](C(=O)O)[C@@H](O)[C@H](O)[C@H]2O)CC[C@]2(C)[C@H]3C(=O)C=C4[C@@H]5C[C@@](C)(C(=O)O)CC[C@]5(C)CC[C@@]4(C)[C@]3(C)CC[C@@H]12 [0.3 18β-GA, 18β-Glycyrrhizin] | 6.07 | 11.24
CC1(C)[C@@H](O[C@H]2O[C@H](C(=O)O)[C@@H](O)[C@H](O)[C@H]2O[C@@H]2O[C@H](C(=O)O)[C@@H](O)[C@H](O)[C@H]2O)CC[C@]2(C)[C@H]3C(=O)C=C4[C@@H]5C[C@@](C)(C(=O)O)CC[C@]5(C)CC[C@@]4(C)[C@]3(C)CC[C@@H]12 [0.1 18β-GA, 18β-Glycyrrhizin] | 0.97 | 3.55
OC[C@@H](O)[C@@H](O)[C@H](O)[C@H](O)CO [0.8 Man, D-Mannitol] | 9.22 | 14.20
OC[C@@H](O)[C@@H](O)CO [2.5 Ery, D-Erythritol] | 34.71 | 37.28
OC[C@@H](O)[C@@H](O)[C@H](O)[C@H](O)CO [0.5 Man, D-Mannitol] | 5.34 | 7.69
OC[C@@H](O)[C@@H](O)[C@H](O)[C@H](O)CO [1.2 Man, D-Mannitol] | 13.59 | 24.85
CC1(C)[C@@H](O[C@H]2O[C@H](C(=O)O)[C@@H](O)[C@H](O)[C@H]2O[C@@H]2O[C@H](C(=O)O)[C@@H](O)[C@H](O)[C@H]2O)CC[C@]2(C)[C@H]3C(=O)C=C4[C@@H]5C[C@@](C)(C(=O)O)CC[C@]5(C)CC[C@@]4(C)[C@]3(C)CC[C@@H]12 [0.04 18β-GA, 18β-Glycyrrhizin] | 0 | 0
CC1(C)[C@@H](O[C@H]2O[C@H](C(=O)O)[C@@H](O)[C@H](O)[C@H]2O[C@@H]2O[C@H](C(=O)O)[C@@H](O)[C@H](O)[C@H]2O)CC[C@]2(C)[C@H]3C(=O)C=C4[C@H]5C[C@@](C)(C(=O)O)CC[C@]5(C)CC[C@@]4(C)[C@]3(C)CC[C@@H]12 [0.3 18α-GA, 18α-Glycyrrhizin] | 5.78 | 10.46
OC[C@@H](O)[C@@H](O)CO [1.2 Ery, D-Erythritol] | 18.69 | 23.08
CC1(C)[C@@H](O[C@H]2O[C@H](C(=O)O)[C@@H](O)[C@H](O)[C@H]2O[C@@H]2O[C@H](C(=O)O)[C@@H](O)[C@H](O)[C@H]2O)CC[C@]2(C)[C@H]3C(=O)C=C4[C@H]5C[C@@](C)(C(=O)O)CC[C@]5(C)CC[C@@]4(C)[C@]3(C)CC[C@@H]12 [0.1 18α-GA, 18α-Glycyrrhizin] | 0.59 | 4.20
OC[C@@H](O)[C@@H](O)CO [0.8 Ery, D-Erythritol] | 8.25 | 15.98
